Laboratory results as given in US20070280944A1, “Use of 5,10-Methylene Tetrahydrofolate for the Treatment of Cancer” (priority 2004, published 2007).

Key:
[1] = tested on: human colon carcinoma HT-29; assay: HT-29 Colorectal Carcinoma Nude Mouse Study #1 (tumor volume, survival); type: in vivo, Nude (nu/nu) mice; details: for mean tumor volume: 22 days following treatment initiation, mean±SEM, i.p. dosing, in mm³ (unit assumed)
Protocol: (§1) Nude (nu/nu) mice were obtained from Charles River Laboratories.
5-Fluorouracil (5-FU) was obtained from Calbiochem. Leucovorin (leucovorin) and oxaliplatin were obtained from Sigma-Aldrich.
Finally, cells were resuspended at 2×10^7 cells/ml in PBS. […] All drugs were dosed daily (0.6 mg/mouse/drug) for five consecutive days with the exception of anti-VEGF and oxaliplatin. Anti-VEGF was dosed once (100 microgram/mouse) on day 5. Oxaliplatin was dosed once on day 1 (0.3mg/mouse). In addition, 5,10-CH2-THFA or leucovorin were injected 20 minutes prior to 5-FU injection. Tumor sizes were measured every 2 to 3 days using calipers.
(§2) Statistical analysis of tumor and blood data was performed using GraphPad Prism scientific software. Bonferonni's T test was used to compare tumor sizes between multiple groups. The Logrank test was used to determine statistical differences between group survival curves. In some cases, in which only two groups were compared, Student's T test was used to determine the significance between group measurements.

[2] = tested on: human colon carcinoma HT-29; assay: HT-29 Colorectal Carcinoma Nude Mouse Study #2 (doubling time, tumor volume, survival); type: in vivo, Nude (nu/nu) mice
Text: as §1
5-Fluorouracil (5-FU) was obtained from Calbiochem. Leucovorin (leucovorin) and oxaliplatin were obtained from Sigma-Aldrich. 5,10 methylenetetrahydofolate was manufactured by Eprova AG. A monoclonal antibody to vascular endothelial growth factor (anti-VEGF) was either obtained from R&D Systems (clone 26503 recognizing the human VEGF isoform 165) or Genentech (Avastin).
Finally, cells were resuspended at 1×10^7 cells/ml in PBS. […] All drugs were dosed daily (0.6 mg/mouse/drug) for seven consecutive days with the exception of anti-VEGF, dosed twice (100 micrograms/mouse) on days 1 and 7. In addition, 5,10-CH2-THFA or leucovorin were injected 20 minutes prior to 5-FU injection. Tumor sizes were measured every 2 to 3 days using calipers.
as §2

Balb/c mice [3] = tested on: Balb/c mice
Protocol: (§3) Balb/c mice were obtained from Charles River Laboratories.
5-Fluorouracil (5-FU) was obtained from Calbiochem. Leucovorin (folinic acid) was obtained from Sigma-Aldrich.
All drugs were intraperitoneally injected (100 microliters/mouse, 0.6mg/mouse/drug) using a 28 gauge insulin needle/syringe. 200-250 microliters blood/mouse was collected by retro-orbital puncture into EDTA-coated microtainer tubes (VWR International) on days 0 (prior to drug injection), 8, and 13. Complete blood counts plus blood differentials were determined by Labcorp Corporation of America using a Bayer Advia 120 Hematology analyzer.

Balb/c mice [4] = type: in vivo
Protocol: as §3
5-Fluorouracil (5-FU) and leucovorin (leucovorin) were obtained from Sigma-Aldrich. […] Gemcitabine was manufactured by Eli Lilly and purchased from Myoderm Inc.
Balb/c female mice were injected with combinations of 5-FU, leucovorin, 5,10-CH2-THFA, and gemcitabine. 5-FU, leucovorin, and 5,10-CH2-THFA were intraperitoneally injected (100 microliters/mouse, 0.6 mg/mouse/drug) for five consecutive days (days 1-5). Gemcitabine was intraperitoneally injected (100 microliters/mouse, 100 micrograms/mouse) every three days (days 1, 4, and 7). All drugs were injected using a 27 gauge insulin needle/syringe. Mouse weights were measured using an analytical balance prior to initiation of drug dosing (pretreatment) and on day 8.

[5] = Weight loss toxicity in the Xeloda HT-29 nude mouse study; type: in vivo, Nude (nu/nu) mice; details: maximum toxicity grade, NCI CTC v3 (grade 1 5-<10% weight loss)
Text: As a surrogate marker for drug toxicity, we examined mouse body weights over time. Using the National Cancer Institute's Common Toxicity Criteria version 3 grading system for weight loss (Table 11), the maximum toxicity grade of weight loss was plotted (FIG. 21). While Xeloda by itself was relatively nontoxic, inducing only grade 1 toxicity in 36% of the mice, leucovorin increased the overall grade 1-3 toxicity to 90% of mice. This increased toxicity is consistent with phase II human clinical trial results showing leucovorin increased Xeloda toxicity parameters such as diarrhea, vomiting, and mucosal inflammation (Van Cutsem, E., M. Findlay, B. Osterwalder, W. Kocha, D. Dailey, R. Pazdur, J. Cassidy, L. Dirix, C. Twelves, D. Allman, J. F. Seitz, J. Scholmerich, H. U. Burger, and J. Verweij. 2000. Capecitabine, an oral fluoropyrimidine carbamate with substantial activity in advanced colorectal cancer: results of a randomized phase II study. J Clin Oncol 18:1337).

[6] = tested on: human colon carcinoma HT-29; assay: Nude mouse study on HT-29 colorectal tumor treatment with capecitabine (Xeloda) (doubling time, survival)
Protocol: Nude (nu/nu) mice were obtained from Simonsen Laboratories. Mice were 6-8 weeks old at the start of all studies. Mice were maintained in isolated, hepa-filter ventilated cages with 4 mice per cage at Perry Scientific's vivarium (San Diego, Calif.).
The human colon carcinoma HT-29 was obtained from American Tissue Culture Collection (ATCC). Cells were maintained in DMEM containing 10% fetal bovine serum (FBS), 2 mM 1-glutamine, 100 units/ml penicillin, and 100 micrograms/ml streptomycin (DMEM-10) in a 37° C., 10% CO2 humidified incubator. Cells were passaged every 2-3 days prior to in vivo experiments.
Capecitabine (Xeloda) was manufactured by Roche Laboratories (Nutley, N.J.) Leucovorin (leucovorin) was obtained from Sigma-Aldrich. 5,10 methylenetetrahydofolate (5,10-CH2-THFA) was manufactured by Eprova AG.
HT-29 cells were prepared for injection as follows: Confluent tissue culture flasks of HT-29 cells were washed once with PBS followed by cell detachment with trypsin. Detached cells were then washed once in DMEM-10 followed by one wash with PBS. Finally, cells were resuspended in PBS at 10^7 cells/ml. […] Tumor sizes and mouse body weights were measured every 2-4 days. Tumor volume was calculated using the following formula: tumor volume=(length×width^2)/2. […]

[7] = female, Balb/c, mouse, in vivo, 1 week following drug treatment
[8] = female, Balb/c, mouse, in vivo, 8 day

O=c1[nH]cc(F)c(=O)[nH]1 [5-FU, 5-fluorouracil]
mean tumor volume ([1]; Nude mice bearing HT-29 tumor): 752.5±104.2
mice still alive (survival) ([1]; at completion of the study period (42 days), Nude mice bearing HT-29 tumor): 25%
mean tumor volume ([2]; 19 days following treatment initiation, mean±SEM, in mm³ (unit assumed)): 368.5±63.7
Tumor Doubling Time ([2]; from best-fit curve analysis, Nude mice bearing HT-29 tumor): 7.4 days
mice with Grade 3-4 lymphopenia (Balb/c mice [3]; NCI grading on % of baseline lymphocyte levels (Grade 3 25-<50% LLN, Grade 4 <25% LLN), one week following drug treatment): 100%
grade 4 neutrophil toxicity mice with neutrophil cell counts between 0 and 99 (Balb/c mice [3]; female, Balb/c, mouse, in vivo): 100%
mice with grade 4 neutrophil toxicity (Balb/c mice [3]; [7]): 100%
mice with grade 4 platelet toxicity (Balb/c mice [3]; [7]): 25%
mice with grade 2-3 weight loss toxicity (Balb/c mice [4]; [8]): 100%
mice surviving for up to 14 days (Balb/c mice [4]; normal Balb/c mice): 36%

O=C1[O][Pt]2([NH][C@@H]3CCCC[C@H]3[NH]2)[O]C1=O [Oxaliplatin, oxaliplatin]
mean tumor volume ([1]; Nude mice bearing HT-29 tumor): 875.0±90.6
response of HT-29 tumor to drug ([1]; largest tumors of all groups, FIG. 4): not responsive

CCCCCOC(=O)Nc1nc(=O)n([C@@H]2O[C@H](C)[C@@H](O)[C@H]2O)cc1F [Xeloda, N4-pentoxylcarbonyl-5′-deoxy-5-fluorocytidine]
mice with grade 1 weight loss toxicity (only grade seen) [5]: 36%
Tumor Doubling Time ([6]; from best-fit linear regression of exponential tumor growth, 14 consecutive days dosing): 10.1 days
survival ([6]; on day 33 of the experiment (day 1 = first day of drug dosing)): 38%

Nc1ccn([C@@H]2O[C@H](CO)[C@@H](O)C2(F)F)c(=O)n1 [gemcitabine]
weight loss toxicity grade (Balb/c mice [4]; [8]): grade 1
